Data reported in ChEMBL document CHEMBL5303573, “Mapping human microbiome drug metabolism by gut bacteria and their genes” (Nature, 2019).

test: The drug is tested on Edwardsiella tarda strain: ATCC23685 for biotransformation. The drug concentrations were measured before and after a 12-h incubation by liquid-chromatography-coupled mass spectrometry (LC–MS); conditions: 2 µM

SMILES	Bacterial Biotransformation
CC(=O)OCC(=O)[C@@]1(OC(C)=O)[C@@H](C)C[C@H]2[C@@H]3C[C@H](F)C4=CC(=O)C=C[C@]4(C)[C@@]3(F)[C@@H](O)C[C@@]21C [DIFLORASONE DIACETATE]	Compound NOT metabolized
CC1Cc2ccccc2N1NC(=O)c1ccc(Cl)c(S(N)(=O)=O)c1 (configuration not stated) [INDAPAMIDE]	Compound NOT metabolized

test: The drug is tested on Parabacteroides merdae strain: ATCC43184 for biotransformation. The drug concentrations were measured before and after a 12-h incubation by liquid-chromatography-coupled mass spectrometry (LC–MS); conditions: 2 µM

SMILES	Bacterial Biotransformation
CC(=O)OCC(=O)[C@@]1(OC(C)=O)[C@@H](C)C[C@H]2[C@@H]3C[C@H](F)C4=CC(=O)C=C[C@]4(C)[C@@]3(F)[C@@H](O)C[C@@]21C [DIFLORASONE DIACETATE]	Compound metabolized
CC1Cc2ccccc2N1NC(=O)c1ccc(Cl)c(S(N)(=O)=O)c1 (configuration not stated) [INDAPAMIDE]	Compound NOT metabolized

test: The drug is tested on Coprococcus comes strain: ATCC27758 for biotransformation. The drug concentrations were measured before and after a 12-h incubation by liquid-chromatography-coupled mass spectrometry (LC–MS); assay type: ADME; parameters: dose 2 uM, timepoint 0 vs 12 hours; conditions: 2 µM

SMILES	Bacterial Biotransformation
CC(=O)OCC(=O)[C@@]1(OC(C)=O)[C@@H](C)C[C@H]2[C@@H]3C[C@H](F)C4=CC(=O)C=C[C@]4(C)[C@@]3(F)[C@@H](O)C[C@@]21C [DIFLORASONE DIACETATE]	Compound NOT metabolized
CC1Cc2ccccc2N1NC(=O)c1ccc(Cl)c(S(N)(=O)=O)c1 (configuration not stated) [INDAPAMIDE]	Compound NOT metabolized

test: The drug is tested on Bacteroides ovatus strain: ATCC8483 for biotransformation. The drug concentrations were measured before and after a 12-h incubation by liquid-chromatography-coupled mass spectrometry (LC–MS); conditions: 2 µM

SMILES	Bacterial Biotransformation
CC(=O)OCC(=O)[C@@]1(OC(C)=O)[C@@H](C)C[C@H]2[C@@H]3C[C@H](F)C4=CC(=O)C=C[C@]4(C)[C@@]3(F)[C@@H](O)C[C@@]21C [DIFLORASONE DIACETATE]	Compound metabolized
CC1Cc2ccccc2N1NC(=O)c1ccc(Cl)c(S(N)(=O)=O)c1 (configuration not stated) [INDAPAMIDE]	Compound NOT metabolized

test: The drug is tested on Clostridium symbiosum strain: ATCC14940 for biotransformation. The drug concentrations were measured before and after a 12-h incubation by liquid-chromatography-coupled mass spectrometry (LC–MS); conditions: 2 µM

SMILES	Bacterial Biotransformation
CC(=O)OCC(=O)[C@@]1(OC(C)=O)[C@@H](C)C[C@H]2[C@@H]3C[C@H](F)C4=CC(=O)C=C[C@]4(C)[C@@]3(F)[C@@H](O)C[C@@]21C [DIFLORASONE DIACETATE]	Compound metabolized

test: The drug is tested on Bacteroides coprophilus strain: DSM18228 for biotransformation. The drug concentrations were measured before and after a 12-h incubation by liquid-chromatography-coupled mass spectrometry (LC–MS); conditions: 2 µM

SMILES	Bacterial Biotransformation
CC(=O)OCC(=O)[C@@]1(OC(C)=O)[C@@H](C)C[C@H]2[C@@H]3C[C@H](F)C4=CC(=O)C=C[C@]4(C)[C@@]3(F)[C@@H](O)C[C@@]21C [DIFLORASONE DIACETATE]	Compound NOT metabolized
CC1Cc2ccccc2N1NC(=O)c1ccc(Cl)c(S(N)(=O)=O)c1 (configuration not stated) [INDAPAMIDE]	Compound NOT metabolized

test: The drug is tested on Bacteroides pectinophilus strain: ATCC43243 for biotransformation. The drug concentrations were measured before and after a 12-h incubation by liquid-chromatography-coupled mass spectrometry (LC–MS); conditions: 2 µM

SMILES	Bacterial Biotransformation
CC(=O)OCC(=O)[C@@]1(OC(C)=O)[C@@H](C)C[C@H]2[C@@H]3C[C@H](F)C4=CC(=O)C=C[C@]4(C)[C@@]3(F)[C@@H](O)C[C@@]21C [DIFLORASONE DIACETATE]	Compound NOT metabolized
CC1Cc2ccccc2N1NC(=O)c1ccc(Cl)c(S(N)(=O)=O)c1 (configuration not stated) [INDAPAMIDE]	Compound NOT metabolized

test: The drug is tested on Ruminococcus torques strain: ATCC27756 for biotransformation. The drug concentrations were measured before and after a 12-h incubation by liquid-chromatography-coupled mass spectrometry (LC–MS); assay type: ADME; parameters: dose 2 uM, timepoint 0 vs 12 hours; conditions: 2 µM

SMILES	Bacterial Biotransformation
CC1Cc2ccccc2N1NC(=O)c1ccc(Cl)c(S(N)(=O)=O)c1 (configuration not stated) [INDAPAMIDE]	Compound NOT metabolized

conditions: enterocloster bolteae, 12 h, 2 µM
Description: The drug is tested on Clostridium bolteae strain: ATCCBAA-613 for biotransformation. The drug concentrations were measured before and after a 12-h incubation by liquid-chromatography-coupled mass spectrometry (LC–MS)

SMILES	Bacterial Biotransformation
CC(=O)OCC(=O)[C@@]1(OC(C)=O)[C@@H](C)C[C@H]2[C@@H]3C[C@H](F)C4=CC(=O)C=C[C@]4(C)[C@@]3(F)[C@@H](O)C[C@@]21C [DIFLORASONE DIACETATE]	Compound metabolized
CC1Cc2ccccc2N1NC(=O)c1ccc(Cl)c(S(N)(=O)=O)c1 (configuration not stated) [INDAPAMIDE]	Compound NOT metabolized

test: The drug is tested on Dorea formicigenerans strain: ATCC27755 for biotransformation. The drug concentrations were measured before and after a 12-h incubation by liquid-chromatography-coupled mass spectrometry (LC–MS); conditions: 2 µM

SMILES	Bacterial Biotransformation
CC(=O)OCC(=O)[C@@]1(OC(C)=O)[C@@H](C)C[C@H]2[C@@H]3C[C@H](F)C4=CC(=O)C=C[C@]4(C)[C@@]3(F)[C@@H](O)C[C@@]21C [DIFLORASONE DIACETATE]	Compound NOT metabolized
CC1Cc2ccccc2N1NC(=O)c1ccc(Cl)c(S(N)(=O)=O)c1 (configuration not stated) [INDAPAMIDE]	Compound NOT metabolized

test: The drug is tested on Bacteroides fragilis strain: HMW610 for biotransformation. The drug concentrations were measured before and after a 12-h incubation by liquid-chromatography-coupled mass spectrometry (LC–MS); conditions: 2 µM

SMILES	Bacterial Biotransformation
CC(=O)OCC(=O)[C@@]1(OC(C)=O)[C@@H](C)C[C@H]2[C@@H]3C[C@H](F)C4=CC(=O)C=C[C@]4(C)[C@@]3(F)[C@@H](O)C[C@@]21C [DIFLORASONE DIACETATE]	Compound metabolized

conditions: bacteroides stercoris, 12 h, 2 µM
Description: The drug is tested on Bacteroides stercoris strain: ATCC43183 for biotransformation. The drug concentrations were measured before and after a 12-h incubation by liquid-chromatography-coupled mass spectrometry (LC–MS)

SMILES	Bacterial Biotransformation
CC(=O)OCC(=O)[C@@]1(OC(C)=O)[C@@H](C)C[C@H]2[C@@H]3C[C@H](F)C4=CC(=O)C=C[C@]4(C)[C@@]3(F)[C@@H](O)C[C@@]21C [DIFLORASONE DIACETATE]	Compound metabolized
CC1Cc2ccccc2N1NC(=O)c1ccc(Cl)c(S(N)(=O)=O)c1 (configuration not stated) [INDAPAMIDE]	Compound NOT metabolized

test: The drug is tested on Eubacterium rectale strain: ATCC33656 for biotransformation. The drug concentrations were measured before and after a 12-h incubation by liquid-chromatography-coupled mass spectrometry (LC–MS); conditions: agathobacter rectalis, 2 µM

SMILES	Bacterial Biotransformation
CC(=O)OCC(=O)[C@@]1(OC(C)=O)[C@@H](C)C[C@H]2[C@@H]3C[C@H](F)C4=CC(=O)C=C[C@]4(C)[C@@]3(F)[C@@H](O)C[C@@]21C [DIFLORASONE DIACETATE]	Compound NOT metabolized
CC1Cc2ccccc2N1NC(=O)c1ccc(Cl)c(S(N)(=O)=O)c1 (configuration not stated) [INDAPAMIDE]	Compound NOT metabolized

test: The drug is tested on Clostridium asparagiforme strain: DSM15981 for biotransformation. The drug concentrations were measured before and after a 12-h incubation by liquid-chromatography-coupled mass spectrometry (LC–MS); assay type: ADME; parameters: dose 2 uM, timepoint 0 vs 12 hours; conditions: enterocloster asparagiformis, 2 µM

SMILES	Bacterial Biotransformation
CC(=O)OCC(=O)[C@@]1(OC(C)=O)[C@@H](C)C[C@H]2[C@@H]3C[C@H](F)C4=CC(=O)C=C[C@]4(C)[C@@]3(F)[C@@H](O)C[C@@]21C [DIFLORASONE DIACETATE]	Compound metabolized
CC1Cc2ccccc2N1NC(=O)c1ccc(Cl)c(S(N)(=O)=O)c1 (configuration not stated) [INDAPAMIDE]	Compound NOT metabolized

test: The drug is tested on Bacteroides fragilis strain: ATCC43859 for biotransformation. The drug concentrations were measured before and after a 12-h incubation by liquid-chromatography-coupled mass spectrometry (LC–MS); conditions: 2 µM

SMILES	Bacterial Biotransformation
CC(=O)OCC(=O)[C@@]1(OC(C)=O)[C@@H](C)C[C@H]2[C@@H]3C[C@H](F)C4=CC(=O)C=C[C@]4(C)[C@@]3(F)[C@@H](O)C[C@@]21C [DIFLORASONE DIACETATE]	Compound metabolized

test: The drug is tested on Alistipes indistinctus strain: DSM22520 for biotransformation. The drug concentrations were measured before and after a 12-h incubation by liquid-chromatography-coupled mass spectrometry (LC–MS); conditions: 2 µM

SMILES	Bacterial Biotransformation
CC(=O)OCC(=O)[C@@]1(OC(C)=O)[C@@H](C)C[C@H]2[C@@H]3C[C@H](F)C4=CC(=O)C=C[C@]4(C)[C@@]3(F)[C@@H](O)C[C@@]21C [DIFLORASONE DIACETATE]	Compound metabolized
CC1Cc2ccccc2N1NC(=O)c1ccc(Cl)c(S(N)(=O)=O)c1 (configuration not stated) [INDAPAMIDE]	Compound NOT metabolized

test: The drug is tested on Blautia luti strain: DSM14534 for biotransformation. The drug concentrations were measured before and after a 12-h incubation by liquid-chromatography-coupled mass spectrometry (LC–MS); assay type: ADME; parameters: dose 2 uM, timepoint 0 vs 12 hours; conditions: 2 µM

SMILES	Bacterial Biotransformation
CC(=O)OCC(=O)[C@@]1(OC(C)=O)[C@@H](C)C[C@H]2[C@@H]3C[C@H](F)C4=CC(=O)C=C[C@]4(C)[C@@]3(F)[C@@H](O)C[C@@]21C [DIFLORASONE DIACETATE]	Compound metabolized
CC1Cc2ccccc2N1NC(=O)c1ccc(Cl)c(S(N)(=O)=O)c1 (configuration not stated) [INDAPAMIDE]	Compound NOT metabolized

test: The drug is tested on Collinsella intestinalis strain: DSM13280 for biotransformation. The drug concentrations were measured before and after a 12-h incubation by liquid-chromatography-coupled mass spectrometry (LC–MS); conditions: 2 µM

SMILES	Bacterial Biotransformation
CC(=O)OCC(=O)[C@@]1(OC(C)=O)[C@@H](C)C[C@H]2[C@@H]3C[C@H](F)C4=CC(=O)C=C[C@]4(C)[C@@]3(F)[C@@H](O)C[C@@]21C [DIFLORASONE DIACETATE]	Compound NOT metabolized
CC1Cc2ccccc2N1NC(=O)c1ccc(Cl)c(S(N)(=O)=O)c1 (configuration not stated) [INDAPAMIDE]	Compound NOT metabolized
